Like-named read-outs stand apart in the source and are kept apart here.
What was measured:
[1] = molecular target: CDK1/CCNB1 (Homo sapiens, UniProt P06493); test: CDK1 homogeneous time-resolved fluorescence (HTRF) kinase assay; type: biochemical
In short: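 Read-out: TR-FRET (Eu anti-phospho-4E-BP1 Thr37/46 antibody, 2 nM; 665 nm or 665/615 ratio) after 60 min phosphorylation of 50 nM ULight-peptide by 0.5 nM CDK1/CCNB1 at 1 mM ATP, 23 °C. Compound preincubated 20 min with enzyme; 1% DMSO.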

[2] = molecular target: CDK2/CCNE1 (Homo sapiens, UniProt P24941); test: CDK2 homogeneous time-resolved fluorescence (HTRF) kinase assay; type: biochemical
In short: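 Compounds were titrated 11-point, half-log from typically 10 μM against 3 nM CDK2/cyclin E1 at 1 mM ATP, with a 20 min enzyme preincubation. Phosphorylation of 50 nM ULight-4E-BP1 peptide over 60 min at 23 °C was detected by europium anti-phospho antibody TR-FRET.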

[3] = CDK1/CCNB, >250 nM marked x, read-out: CDK1/CCNB IC50 >250 nM
[4] = CDK2/CCNE, 25-250 nM marked x, read-out: CDK2/CCNE IC50 25-250 nM
[5] = CDK2/CCNE, >250 nM marked x, read-out: CDK2/CCNE IC50 >250 nM
[6] = CDK1/CCNB, 25-250 nM marked x, read-out: CDK1/CCNB IC50 25-250 nM
[7] = CDK2/CCNE, <25 nM, read-out: CDK2/CCNE IC50 <25 nM

Chain of CDK1/CCNB1 (P06493 whole entry): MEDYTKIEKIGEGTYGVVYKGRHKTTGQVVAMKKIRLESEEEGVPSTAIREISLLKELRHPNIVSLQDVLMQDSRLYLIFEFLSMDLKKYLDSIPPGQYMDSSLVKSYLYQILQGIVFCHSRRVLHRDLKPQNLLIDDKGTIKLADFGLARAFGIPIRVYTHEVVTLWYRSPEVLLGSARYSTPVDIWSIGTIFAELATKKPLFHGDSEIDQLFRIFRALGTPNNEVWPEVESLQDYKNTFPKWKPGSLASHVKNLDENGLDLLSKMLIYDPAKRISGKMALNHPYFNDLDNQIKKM
Chain of CDK1/CCNB1 (P14635 whole entry partner): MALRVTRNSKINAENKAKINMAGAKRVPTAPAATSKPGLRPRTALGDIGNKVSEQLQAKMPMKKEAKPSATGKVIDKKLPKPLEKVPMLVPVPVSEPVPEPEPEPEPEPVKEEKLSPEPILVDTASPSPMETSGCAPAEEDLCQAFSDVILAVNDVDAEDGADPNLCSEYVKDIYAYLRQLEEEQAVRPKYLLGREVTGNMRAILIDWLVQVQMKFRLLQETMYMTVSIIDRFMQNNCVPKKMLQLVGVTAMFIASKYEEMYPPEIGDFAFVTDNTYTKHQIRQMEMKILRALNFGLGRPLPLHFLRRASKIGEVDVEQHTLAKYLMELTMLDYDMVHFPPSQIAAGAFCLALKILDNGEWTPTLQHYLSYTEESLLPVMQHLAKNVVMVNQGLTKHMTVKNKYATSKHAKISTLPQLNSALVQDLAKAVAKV

SMILES	IC50 [1, 3] [nM]	IC50 [2, 4] [nM]	other results
CS(=O)(=O)N1CCC(Nc2cc3c(-c4ccc(C(F)(F)F)nc4)nccc3cn2)CC1 [Ex 62, N-(1-(methylsulfonyl)piperidin-4-yl)-5-(6-(trifluoromethyl)pyridin-3-yl)-2,6-naphthyridin-3-amine]	> 250	25 to 250	–
CS(=O)(=O)N1CCC(Nc2cc3c(N4CCCCC4)nc(CCl)cc3cn2)CC1 [Ex 119, 7-(chloromethyl)-N-(1-(methylsulfonyl)piperidin-4-yl)-5-(piperidin-1-yl)-2,6-naphthyridin-3-amine]	> 250	–	IC50 [2, 5]: > 250 nM
CS(=O)(=O)c1ccc(Nc2cc3c(N4CCC(C#N)CC4)ncnc3cn2)cc1 [Example 960, 1-(6-((4-(methylsulfonyl)phenyl)amino)pyrido [3,4-d]pyrimidin-4-yl)piperidine-4-carbonitrile]	–	–	IC50 ([1]; 0.5 nM CDK1/CCNB1, 1 mM ATP, read-out: CDK1/CCNB IC50 >250 nM): > 250 nM; IC50 ([2]; 3 nM CDK2/CCNE1, 1 mM ATP, read-out: CDK2/CCNE IC50 >250 nM): > 250 nM
N#CC1CCN(c2nccc3cnc(Nc4cccc(C(=O)NC5CCSC5=O)c4)cc23)CC1 (racemic) [Ex 112, 3-((5-(4-cyanopiperidin-1-yl)-2,6-naphthyridin-3-yl)amino)-N-(2-oxotetrahydrothiophen-3-yl)benzamide]	> 250	25 to 250	–
CS(=O)(=O)c1ccc(Nc2cc3c(C4CCN(CC5CCCCC5)CC4)nccc3cn2)cc1 [Ex 153, 5-(1-(cyclohexylmethyl)piperidin-4-yl)-N-(4-(methylsulfonyl)phenyl)-2,6-naphthyridin-3-amine]	> 250	–	IC50 [2, 5]: > 250 nM
N#CC1CCN(c2nccc3cnc(Nc4ccc(CCO)cc4)cc23)CC1 [Ex 133, 1-(7-((4-(2-hydroxyethyl)phenyl)amino)-2,6-naphthyridin-1-yl)piperidine-4-carbonitrile]	> 250	25 to 250	–
CC1(O)CCN(c2nccc3cnc(NC4CCN(S(C)(=O)=O)CC4)cc23)CC1 [Ex 54, 4-methyl-1-(7-((1-(methylsulfonyl)piperidin-4-yl)amino)-2,6-naphthyridin-1-yl)piperidin-4-ol]	> 250	25 to 250	–
CCN(C)c1nccc2cnc(NC3CCN(S(C)(=O)=O)CC3)cc12 [Ex 38, N1-ethyl-N1-methyl-N7-(1-(methylsulfonyl)piperidin-4-yl)-2,6-naphthyridine-1,7-diamine]	–	–	IC50 [1, 6]: 25 to 250 nM; IC50 [2, 7]: < 25 nM
COc1nccc2cnc(NC3CCN(S(C)(=O)=O)CC3)cc12 [Example 5, 5-methoxy-N-(1-(methylsulfonyl)piperidin-4-yl)-2,6-naphthyridin-3-amine]	> 250	25 to 250	–
CS(=O)(=O)c1ccc(Nc2cc3c(-c4ccc5[nH]cnc5c4)nccc3cn2)cc1 [Ex 126, 5-(1H-benzo[d]imidazol-5-yl)-N-(4-(methylsulfonyl)phenyl)-2,6-naphthyridin-3-amine]	> 250	25 to 250	–
CN1CCC(c2nccc3cnc(Nc4ccc(S(C)(=O)=O)cc4)cc23)CC1 [Ex 151, 5-(1-methylpiperidin-4-yl)-N-(4-(methylsulfonyl)phenyl)-2,6-naphthyridin-3-amine]	> 250	25 to 250	–
N#CC1CCN(c2nccc3cnc(Nc4ccc(OS(=O)(=O)F)cc4)cc23)CC1 [Example 14, 4-((5-(4-cyanopiperidin-1-yl)-2,6-naphthyridin-3-yl)amino)phenyl sulfurofluoridate]	–	–	IC50 [1]: > 250 nM; IC50 [2]: > 250 nM
CS(=O)(=O)c1ccc(Nc2cc3c(C4CCC(C#N)CC4)nccc3cn2)cc1 (racemic) [Ex 142, 4-(7-((4-(methylsulfonyl)phenyl)amino)-2,6-naphthyridin-1-yl)cyclohexane-1-carbonitrile]	–	–	IC50 [1, 6]: 25 to 250 nM; IC50 [2, 7]: < 25 nM
CS(=O)(=O)N1CCC(Nc2cc3c(N4CCCCC4)nc(CO)cc3cn2)CC1 [Example 17, (7-((1-(methylsulfonyl)piperidin-4-yl)amino)-1-(piperidin-1-yl)-2,6-naphthyridin-3-yl)methanol]	> 250	25 to 250	–
Cc1c(-c2nccc3cnc(Nc4ccc(S(C)(=O)=O)cc4)cc23)ccc2c1cnn2C1CCOCC1 [Ex 164, 5-(4-methyl-1-(tetrahydro-2H-pyran-4-yl)-1H-indazol-5-yl)-N-(4-(methylsulfonyl)phenyl)-2,6-naphthyridin-3-amine]	> 250	25 to 250	–
CS(=O)(=O)N1CCC(Nc2cc3c(N4CCC(C(N)=O)C4)nccc3cn2)CC1 (racemic) [Ex 260, 1-(7-((1-(methylsulfonyl)piperidin-4-yl)amino)-2,6-naphthyridin-1-yl)pyrrolidine-3-carboxamide]	> 250	25 to 250	–
Cn1nncc1-c1nccc2cnc(Nc3ccc(S(C)(=O)=O)cc3)cc12 [Ex 144, 5-(1-methyl-1H-1,2,3-triazol-5-yl)-N-(4-(methylsulfonyl)phenyl)-2,6-naphthyridin-3-amine]	> 250	–	IC50 [2, 5]: > 250 nM
N#CC1CCN(c2nccc3cnc(Nc4cccc(C(=O)ON5C(=O)CCC5=O)c4)cc23)CC1 [Ex 258, 2,5-dioxopyrrolidin-1-yl 3-((5-(4-cyanopiperidin-1-yl)-2,6-naphthyridin-3-yl)amino)benzoate]	–	–	IC50 ([1]; CDK1/CCNB, <25 nM, read-out: CDK1/CCNB IC50 <25 nM): < 25 nM; IC50 [2, 7]: < 25 nM
C=CS(=O)(=O)c1ccc(Nc2cc3c(N4CCC(O)C4)nccc3cn2)cc1 (racemic) [Ex 211, 1-(7-((4-(vinylsulfonyl)phenyl)amino)-2,6-naphthyridin-1-yl)pyrrolidin-3-ol]	> 250	25 to 250	–
CS(=O)(=O)N1CCC(Nc2cc3c(-c4ccccn4)nccc3cn2)CC1 [Example 8, N-(1-(methylsulfonyl)piperidin-4-yl)-5-(pyridin-2-yl)-2,6-naphthyridin-3-amine]	> 250	25 to 250	–
CS(=O)(=O)N1CCC(Nc2cc3c(C(=O)N4CCCC(C#N)C4)nccc3cn2)CC1 (racemic) [Ex 98, 1-(7-((1-(methylsulfonyl)piperidin-4-yl)amino)-2,6-naphthyridine-1-carbonyl)piperidine-3-carbonitrile]	> 250	25 to 250	–
C=CS(=O)(=O)N1CCC(Nc2cc3c(-c4cnn(C)c4)nccc3cn2)CC1 [Ex 108, 5-(1-methyl-1H-pyrazol-4-yl)-N-(1-(vinylsulfonyl)piperidin-4-yl)-2,6-naphthyridin-3-amine]	> 250	25 to 250	–
Cn1cc(-c2nccc3cnc(NC4CCN(S(C)(=O)=O)CC4)cc23)cn1 [Example 4, 5-(1-methyl-1H-pyrazol-4-yl)-N-(1-(methylsulfonyl)piperidin-4-yl)-2,6-naphthyridin-3-amine]	> 250	25 to 250	–
CS(=O)(=O)N1CCC(Nc2cc3c(N4CCCCC4)nc(C(F)F)cc3cn2)CC1 [Ex 118, 7-(difluoromethyl)-N-(1-(methylsulfonyl)piperidin-4-yl)-5-(piperidin-1-yl)-2,6-naphthyridin-3-amine]	> 250	25 to 250	–
CS(=O)(=O)c1ccc(Nc2cc3c(C#C[C@H]4CC[C@H](C(N)=O)CC4)nccc3cn2)cc1 [Ex 168, (1r,4r)-4-((7-((4-(methylsulfonyl)phenyl)amino)-2,6-naphthyridin-1-yl)ethynyl)cyclohexane-1-carboxamide]	–	–	IC50 [1, 6]: 25 to 250 nM; IC50 [2, 7]: < 25 nM
CS(=O)(=O)N1CCC(Nc2cc3c(C(=O)N4CCC(C#N)C4)nccc3cn2)CC1 (racemic) [Ex 94, 1-(7-((1-(methylsulfonyl)piperidin-4-yl)amino)-2,6-naphthyridine-1-carbonyl)pyrrolidine-3-carbonitrile]	> 250	25 to 250	–

Source: patent publication US20260325533A1, “CDK INHIBITOR COMPOUNDS” (ALEKSIA THERAPEUTICS, INC., priority 2023, published 2026)
